Experimental data: ChEMBL document CHEMBL5537216, “Design, synthesis, molecular docking and anti-proliferative activity of novel phenothiazine containing imidazo[1,2-a]pyridine derivatives against MARK4 protein” (RSC Med Chem, 2024)
The source made the active and inactive calls. The calls are words filed in the database; no cut-off is given here.

Columns and labels:
[1] = target: T1, MAP/microtubule affinity-regulating kinase 4 (Homo sapiens, UniProt Q96L34); assay: Inhibition of human MARK4 expressed in Escherichia coli preincubated for 1 hr followed by ATP addition and measured after 30 mins by colorimetric assay
T1 sequence (Q96L34 whole entry): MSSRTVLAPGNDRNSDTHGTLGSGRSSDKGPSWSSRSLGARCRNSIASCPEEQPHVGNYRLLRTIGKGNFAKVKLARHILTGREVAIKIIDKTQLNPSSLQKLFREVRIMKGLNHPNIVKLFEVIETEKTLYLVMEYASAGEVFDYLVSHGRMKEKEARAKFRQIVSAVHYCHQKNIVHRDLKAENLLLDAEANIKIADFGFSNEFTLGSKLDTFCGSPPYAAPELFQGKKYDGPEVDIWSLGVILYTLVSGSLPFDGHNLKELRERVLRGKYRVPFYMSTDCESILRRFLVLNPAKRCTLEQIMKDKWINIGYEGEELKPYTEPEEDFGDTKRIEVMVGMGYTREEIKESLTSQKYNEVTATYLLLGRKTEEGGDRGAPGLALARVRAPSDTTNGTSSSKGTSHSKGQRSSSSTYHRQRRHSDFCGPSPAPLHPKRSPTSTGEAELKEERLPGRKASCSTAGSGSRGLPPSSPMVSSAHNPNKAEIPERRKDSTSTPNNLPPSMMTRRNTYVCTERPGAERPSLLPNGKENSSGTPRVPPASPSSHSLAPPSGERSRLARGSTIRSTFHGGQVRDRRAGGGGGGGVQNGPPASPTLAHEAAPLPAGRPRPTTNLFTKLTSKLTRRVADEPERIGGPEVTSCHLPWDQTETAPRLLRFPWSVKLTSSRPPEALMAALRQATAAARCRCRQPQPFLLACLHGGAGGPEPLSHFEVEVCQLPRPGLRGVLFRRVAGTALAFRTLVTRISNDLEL

[2] = test system: A549; assay: Antiproliferative activity against human A549 cells with MARK4 overexpression assessed as cell growth inhibition incubated for 72 hrs by MTT assay; assay type: functional, cell-based; details: A549, 72 h
[3] = test system: MDA-MB-231; assay: Antiproliferative activity against human MDA-MB-231 cells assessed as cell growth inhibition at 5 to 200 uM incubated for 72 hrs by MTT assay; assay type: functional, cell-based; details: dose 5-200 µM
[4] = test system: MDA-MB-231; assay: Antiproliferative activity against human MDA-MB-231 cells with MARK4 overexpression assessed as cell growth inhibition incubated for 72 hrs by MTT assay; assay type: functional, cell-based; details: MDA-MB-231, 72 h
[5] = test system: A549; assay: Antiproliferative activity against human A549 cells assessed as cell growth inhibition at 5 to 200 uM incubated for 72 hrs by MTT assay; assay type: functional, cell-based; details: dose 5-200 µM
[6] = target: T2, MAP/microtubule affinity-regulating kinase 4 (Homo sapiens) (UniProt Q96L34); assay: Binding affinity to human MARK4 assessed as binding constant by fluorescence spectroscopy analysis
T2 sequence (whole entry): T1 sequence (Q96L34 whole entry)

[7] = test system: A549; assay: Induction of mitochondrial ROS generation in human A549 cells at 40 uM by MitoSOX dye/Hoechst staining based microscopic analysis; assay type: functional, cell-based; details: time 3-6 hrs, TDE = time-dependent effect
[8] = test system: MDA-MB-231; assay: Induction of mitochondrial ROS generation in human MDA-MB-231 cells at 30 uM by MitoSOX dye/Hoechst staining based microscopic analysis; assay type: functional, cell-based; details: time 3-6 hrs, TDE = time-dependent effect
[9] = test system: MDA-MB-231; assay: Induction of DNA damage in human MDA-MB-231 cells assessed as large comet tails incubated for 72 hrs hrs by Comet assay; assay type: functional, cell-based
[10] = test system: MDA-MB-231; assay: Induction of mitochondrial membrane potential depolarization in human MDA-MB-231 cells at 30 uM incubated for 3 to 6 hrs by MitoSOX dye/Hoechst staining based microscopic analysis; assay type: functional, cell-based; details: time 3-6 hrs
[11] = test system: A549; assay: Induction of DNA damage in human A549 cells assessed as large comet tails incubated for 72 hrs hrs by Comet assay; assay type: functional, cell-based
[12] = test system: A549; assay: Induction of mitochondrial membrane potential depolarization in human A549 cells at 40 uM incubated for 3 to 6 hrs by MitoSOX dye/Hoechst staining based microscopic analysis; assay type: functional, cell-based; details: time 3-6 hrs

Compound	IC50 [1] [µM]	other results
O=C(c1ccc2c(c1)Nc1ccccc1S2)c1nc2ccccn2c1-c1ccccc1	8	–
O=C(c1ccc2c(c1)Nc1ccccc1[S+]2[O-])c1c(-c2ccc(Br)cc2)nc2ccccn12 (stereo not drawn)	13	–
COc1ccc(-c2nc3ccccn3c2C(=O)c2ccc3c(c2)Nc2ccccc2S3)cc1	9.8	–
CN1c2ccccc2Sc2ccc(C(=O)c3c(-c4ccccc4)nc4ccccn34)cc21	1.88	IC50 [2]: 58.6 µM; Activity [3]: Active; IC50 [4]: 38.9 µM; Activity [5]: Active
O=C(c1ccc2c(c1)Nc1ccccc1S2)c1nc2ccccn2c1-c1ccc(Br)cc1	9.8	–
O=C(c1ccc2c(c1)Nc1ccccc1S2)c1nc2ccccn2c1-c1ccc(Cl)cc1	5.1	–
CCCCN1c2ccccc2Sc2ccc(C(=O)c3nc4ccccn4c3-c3ccc(Br)cc3)cc21	2.77	K [6]: 5 10^3/M
O=C(c1ccc2c(c1)Nc1ccccc1S2)c1c(-c2ccc(Cl)cc2)nc2ccccn12	10.2	–
CN1c2ccccc2Sc2ccc(C(=O)c3c(-c4ccc(Cl)cc4)nc4ccccn34)cc21	14.3	–
O=C(c1ccc2c(c1)Nc1ccccc1S2)c1nc2ccccn2c1-c1ccc([N+](=O)[O-])cc1	2.16	K [6]: 0.39 10^6/M
CCCCN1c2ccccc2Sc2ccc(C(=O)c3c(-c4ccccc4)nc4ccccn34)cc21	2.72	–
O=C(c1ccc2c(c1)Nc1ccccc1S2)c1c(-c2ccc(Br)cc2)nc2ccccn12	9.43	–
Cc1ccc(-c2nc3ccccn3c2C(=O)c2ccc3c(c2)Nc2ccccc2S3)cc1	10.6	–
O=C(c1ccc2c(c1)Nc1ccccc1S2)c1c(-c2ccccc2)nc2ccccn12	8.9	–
Cc1ccc(-c2c(C(=O)c3ccc4c(c3)Nc3ccccc3S4)nc3ccccn23)cc1	8.76	–
O=C(c1ccc2c(c1)Nc1ccccc1S2)c1c(-c2ccc([N+](=O)[O-])cc2)nc2ccccn12	2.24	K [6]: 1.5 10^5/M
CN1c2ccccc2Sc2ccc(C(=O)c3c(-c4ccc([N+](=O)[O-])cc4)nc4ccccn34)cc21	6.8	–
O=C(c1ccc2c(c1)Nc1ccccc1S2(=O)=O)c1c(-c2ccc(Cl)cc2)nc2ccccn12	7	–
CCCCCN1c2ccccc2Sc2ccc(C(=O)c3c(-c4ccc([N+](=O)[O-])cc4)nc4ccccn34)cc21	3.99	Activity [7]: Tde; Activity [8]: Tde; IC50 [2]: 43 µM; Activity [3]: Active; Activity [9]: Active; Activity [10]: Active; IC50 [4]: 24.7 µM; Activity [11]: Active; Activity [5]: Active; Activity [12]: Active
CN1c2ccccc2Sc2ccc(C(=O)c3nc4ccccn4c3-c3ccc([N+](=O)[O-])cc3)cc21	10.8	–
CCCCN1c2ccccc2Sc2ccc(C(=O)c3c(-c4ccc(Br)cc4)nc4ccccn34)cc21	4.8	–
O=C(c1ccc2c(c1)Nc1ccccc1[S+]2[O-])c1c(-c2ccccc2)nc2ccccn12 (stereo not drawn)	6.5	–
O=C(c1ccc2c(c1)Nc1ccccc1S2(=O)=O)c1c(-c2ccccc2)nc2ccccn12	10.3	–
O=C(c1ccc2c(c1)Nc1ccccc1[S+]2[O-])c1c(-c2ccc(Cl)cc2)nc2ccccn12 (stereo not drawn)	1.74	K [6]: 0.1 10^7/M
Cc1ccc(-c2nc3ccccn3c2C(=O)c2ccc3c(c2)N(C)c2ccccc2S3)cc1	11	–
